Data as given in patent US20230103250A1, “DRUG SUBSTANCE OF L[…] MEDICINAL COMPOSITION COMPRISING SAME” (Eisai R&D Management Co., Ltd., priority 2020, published 2023).

Test: Particle size (D90) of lemborexant active pharmaceutical ingredient by laser diffraction/scattering
Assay type: physicochemical
Conditions: for Particle size (D90 (μm)): pulverized lemborexant API lots, Table 1; for D90 (μm): after pulverization with 160UPZ (Example 1, Table 2), Microtrack MT3300EXII
Procedure: The particle size of the granular material, which is a lemborexant active pharmaceutical ingredient, can be measured by a laser diffraction/scattering method.
A sample suspension is prepared by dispersing about 30 mg of a lemborexant active pharmaceutical ingredient in 50 mL of a 0.1% polysorbate 20 aqueous solution as a dispersion solvent. The sample suspension is put into a diffractometer and an appropriate amount of dispersion solvent is added. The particle size distribution of the sample suspension is measured, and the value of the particle size of the sample is recorded as a cumulative diameter distribution.
Particle size distribution measurement conditions for the diffractometer may be as follows.
Number of measurements: 3 times
Measurement time: 30 seconds
Transparency: Transparent
Particle refractive index: 1.81
Solvent refractive index: 1.33
The 90% cumulative diameter (D90) was measured with a particle size analyzer (Microtrack MT3300EXII). A sample suspension was prepared by dispersing about 30 mg of a lemborexant active pharmaceutical ingredient in 50 mL of a dispersion solvent 0.1% polysorbate 20 aqueous solution. The sample suspension was put into a particle size analyzer, and an appropriate amount of a dispersion solvent was added thereto. The particle size distribution of the sample suspension was measured, and the value of the particle size of the sample was recorded as a cumulative diameter distribution.
The measurement conditions for the particle size analyzer are as follows.
Flow rate: 50% Number of measurements: 3 times Measurement time: 30 seconds
Particle refractive index: 1.81 Solvent refractive index: 1.33

SMILES: Cc1ncc(OC[C@@]2(c3cccc(F)c3)C[C@H]2C(=O)Nc2ccc(F)cn2)c(C)n1 [Lot 1]
- Particle size (D90 (μm)) (listed as 1): 47 μm

SMILES: Cc1ncc(OC[C@@]2(c3cccc(F)c3)C[C@H]2C(=O)Nc2ccc(F)cn2)c(C)n1 [Lot 2]
- Particle size (D90 (μm)) (listed as 2): 18 μm

SMILES: Cc1ncc(OC[C@@]2(c3cccc(F)c3)C[C@H]2C(=O)Nc2ccc(F)cn2)c(C)n1 [Lot 3]
- Particle size (D90 (μm)) (listed as 3): 48 μm

SMILES: Cc1ncc(OC[C@@]2(c3cccc(F)c3)C[C@H]2C(=O)Nc2ccc(F)cn2)c(C)n1 [Lot 4]
- Particle size (D90 (μm)) (listed as 4): 32 μm

SMILES: Cc1ncc(OC[C@@]2(c3cccc(F)c3)C[C@H]2C(=O)Nc2ccc(F)cn2)c(C)n1 [Lot 5]
- Particle size (D90 (μm)) (listed as 5): 39 μm

SMILES: Cc1ncc(OC[C@@]2(c3cccc(F)c3)C[C@H]2C(=O)Nc2ccc(F)cn2)c(C)n1 [Lot 6]
- Particle size (D90 (μm)) (listed as 6): 23 μm

SMILES: Cc1ncc(OC[C@@]2(c3cccc(F)c3)C[C@H]2C(=O)Nc2ccc(F)cn2)c(C)n1 [Lot 7]
- Particle size (D90 (μm)) (listed as 7): 40 μm

SMILES: Cc1ncc(OC[C@@]2(c3cccc(F)c3)C[C@H]2C(=O)Nc2ccc(F)cn2)c(C)n1 [Lot 8]
- Particle size (D90 (μm)) (listed as 8): 35 μm

SMILES: Cc1ncc(OC[C@@]2(c3cccc(F)c3)C[C@H]2C(=O)Nc2ccc(F)cn2)c(C)n1 [Lot 9]
- Particle size (D90 (μm)) (listed as 9): 34 μm

SMILES: Cc1ncc(OC[C@@]2(c3cccc(F)c3)C[C@H]2C(=O)Nc2ccc(F)cn2)c(C)n1 [Lot S1]
- D90 (μm) (listed as S1): 98 μm

SMILES: Cc1ncc(OC[C@@]2(c3cccc(F)c3)C[C@H]2C(=O)Nc2ccc(F)cn2)c(C)n1 [Lot S2]
- D90 (μm) (listed as S2): 79 μm

SMILES: Cc1ncc(OC[C@@]2(c3cccc(F)c3)C[C@H]2C(=O)Nc2ccc(F)cn2)c(C)n1 [Lot S3]
- D90 (μm) (listed as S3): 64 μm

SMILES: Cc1ncc(OC[C@@]2(c3cccc(F)c3)C[C@H]2C(=O)Nc2ccc(F)cn2)c(C)n1 [Lot S4]
- D90 (μm) (listed as S4): 56 μm

SMILES: Cc1ncc(OC[C@@]2(c3cccc(F)c3)C[C@H]2C(=O)Nc2ccc(F)cn2)c(C)n1 [Lot S5]
- D90 (μm) (listed as S5): 110 μm

SMILES: Cc1ncc(OC[C@@]2(c3cccc(F)c3)C[C@H]2C(=O)Nc2ccc(F)cn2)c(C)n1 [Lot S6]
- D90 (μm) (listed as S6): 20 μm

SMILES: Cc1ncc(OC[C@@]2(c3cccc(F)c3)C[C@H]2C(=O)Nc2ccc(F)cn2)c(C)n1 [lemborexant, (1R,2S)-2-(((2,4-dimethylpyrimidine-5-yl)oxy)methyl)-2-(3-fluorophenyl)-N-(5-fluoropyridin-2-yl)cyclopropanecarboxamide]
- D90 (API used for the tablets of Example 4): 32 μm
